Legend:
MT4 [1] = test: Compound was evaluated for the inhibition of HIV-1 induced cytopathic effect in MT-4 cells.; format: functional, cell-based; details: Homo sapiens
C8166 = test: Compound was evaluated for the inhibition of p24 viral antigen production in C-8166 cells.; format: functional, cell-based; details: Homo sapiens
MT4 [2] = test: Compound was evaluated for the concentration required to reduce the viability of MT-4 cells.; format: functional; details: Homo sapiens
Human alphaherpesvirus 1 [3] = test: Tested for activity against HSV-1; Not active; format: functional, organism-based
Vero = test: Cytotoxicity against Vero cells up to 250 uM; Not active; format: functional, cell-based, Chlorocebus sabaeus
Human betaherpesvirus 5 [4] = test: Inhibition of HCMV replication in Vero cells at 250 uM; No inhibition; format: functional, organism-based
[5] = Ratio of kinetic parameters of Vmax to Km was reported
Human betaherpesvirus 5 [6] = test: Inhibition of HCMV replication in MRC-5 cells; No inhibition; format: functional, organism-based; details: mrc5
Human alphaherpesvirus 1 [7] = test: Inhibitory activity against HSV-1 replication; format: functional, organism-based
Human alphaherpesvirus 1 [8] = test: Anti-HSV-1 activity at 300 uM; Not active; format: functional, organism-based

Compound	EC50 (MT4 [1]) [µM]	EC50 (C8166) [µM]	CC50 (MT4 [2]) [µM]	IC50 (Human alphaherpesvirus 1 [3])	IC50 (Vero)	IC50 (Human betaherpesvirus 5 [4])	Ratio [5]	IC50 (Human betaherpesvirus 5 [6])	IC50 (Human alphaherpesvirus 1 [7]) [µM]	IC50 (Human alphaherpesvirus 1 [8])
O=c1[nH]cnc2c1ncn2[C@H]1CC[C@@H](CO)O1 [DIDANOSINE]	13	0.9	> 1000							
C=C(/C=C/P(=O)(O)O)CCn1cnc2c(O)nc(N)nc21	49	8	> 1000	Not Active	Not Active	Not Active	102	Not Active		
Nc1nc2c(ncn2[C@@H]2O[C@H](COP(=O)(O)O)[C@H](O)[C@@H]2O)c(=O)[nH]1							100			
Nc1ncnc2c1ncn2CCOCP(=O)(O)O [ADEFOVIR]	20	1.5							117	
C=C(/C=C/P(=O)(O)O)Cn1cnc2c(O)nc(N)nc21	> 100		> 1000		Not Active	Not Active	1.8	Not Active	119	Not Active
Cc1cn([C@H]2C[C@H](N=[N+]=[N-])[C@@H](CO)O2)c(=O)[nH]c1=O [ZIDOVUDINE]	0.04	0.04								
